# In patent US9303045B2, “5-HT3 receptor antagonists” (Takeda Pharmaceutical Company Limited, priority 2013, dated 2016):
# Where a name gives a salt, the structure may show the parent alone.
# Target: 5HT3a receptor expressed in HEK-293T cells (Homo sapiens (Human), UniProt P46098)
# Assay: Inhibition of Ca flux activity of 5HT3 in vitro assay
# Assay type: cell-based
# Conditions: calcium flux, 5HT 216 nM, approximate values
# Description: Inhibition of Ca Flux Activity of 5HT3 In Vitro Assay
# The 5HT3 antagonist activity of the compounds of the invention was determined by measuring the ability of the compounds to inhibit the calcium flux activity of […] receptor expressed in HEK-293T cells. HEK-293T cells were transfected with the 5HT3a expression construct using Xtreme Gene 9 (Roche) in 150 mm tissue culture treated plates and incubated for 24 hours at 37° C. Cells were then split and plated at a density of 60K cells/well in poly-lysine coated, black 96-well plates with clear bottoms (BD BioSciences) and incubated overnight at 37° C. Growth media was removed and cells loaded with 200 uL calcium indicator dye in HBSS containing 20 mM HEPES (Calcium 5 Assay kit, Molecular Devices) and incubated at 37° C. for 1 hour. While cells were incubating, the 10× antagonist and agonist/antagonist addition plates were made. For 10× antagonist plate: half log serial dilutions (final concentrations range from 10^−7 through 10^−10 with the bottom well a negative, no ligand control) were made from test compounds in DMSO at a 1000× concentration and then diluted to 10× in HBSS/20 mM HEPES. For addition plate: 5HT was diluted to 100× in HBSS/20 mM HEPES (final concentration in the assay—216 nM) and 15 uL was added to each well of the addition plate, 15 uL of 10× compound was also added to the addition plate, and finally 120 uL of HBSS/20 mM HEPES (for a total of 150 uL). Cells were then removed from the incubator and equilibrated to room temperature for 10 minutes, then 22.5 uL of 10× test compounds were added in triplicate to the plates and incubated at room temperature for 10 minutes (Tropisetron was used as a positive control in every assay). Test plate and addition plate were loaded into the FlexStation III (Molecular Devices), and using the fluidics, 22.5 uL compound additions were made (at t=˜17 seconds), and fluorescence was measured for 90 seconds, reading every 2.2 seconds. Data sets were analyzed as max minus min using Software Max Pro (Molecular Devices). IC50 curves were generated using non-linear regression in GraphPad Prism.
# 5HT3a receptor expressed in HEK-293T cells, sequence (P46098 24-478): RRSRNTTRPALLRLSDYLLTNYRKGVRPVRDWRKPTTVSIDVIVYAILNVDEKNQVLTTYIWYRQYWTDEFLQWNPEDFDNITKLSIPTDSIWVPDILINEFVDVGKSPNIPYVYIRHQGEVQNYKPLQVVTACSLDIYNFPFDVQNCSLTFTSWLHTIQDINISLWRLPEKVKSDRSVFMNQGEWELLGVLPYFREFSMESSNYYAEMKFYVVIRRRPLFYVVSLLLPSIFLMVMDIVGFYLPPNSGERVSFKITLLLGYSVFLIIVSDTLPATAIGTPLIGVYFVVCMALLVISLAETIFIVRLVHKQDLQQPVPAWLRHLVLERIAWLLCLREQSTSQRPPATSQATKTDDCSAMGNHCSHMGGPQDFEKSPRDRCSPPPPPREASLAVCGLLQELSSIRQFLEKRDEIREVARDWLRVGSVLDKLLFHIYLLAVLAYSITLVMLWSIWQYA
row,Compound,IC50
1,"CN(C(=O)c1cn(-c2cnsc2)c2ccccc12)C1C[C@H]2COC[C@@H](C1)N2C (stereo partly drawn) [Example 186, 1-(isothiazol-4-yl)-N-methyl-N-((1R,5S,7S)-9-methyl-3-oxa-9-azabicyclo[3.3.1]nonan-7-yl)-1H-indole-3-carboxamide]",1.5 nM
2,"CN1[C@@H]2CC[C@H]1CC(NC(=O)c1cn(CC(F)F)c3ccc(F)cc13)C2 (stereo partly drawn) [Example 75, 1-(2,2-difluoroethyl)-5-fluoro-N-((1R,3R,5S)-8-methyl-8-azabicyclo[3.2.1]octan-3-yl)-1H-indole-3-carboxamide, 2,2,2-trifluoroacetate]",3.15 nM
3,"N#Cc1ccc(-n2cc(C(=O)O[C@H]3C[C@H]4COC[C@@H](C3)N4)c3ccccc32)cc1 [Example 180, (1R,5S,7s)-3-oxa-9-azabicyclo[3.3.1]nonan-7-yl 1-(4-cyanophenyl)-1H-indole-3-carboxylate, 2,2,2-trifluoroacetic acid salt]",5.91 nM
4,"CN1[C@@H]2COC[C@H]1CC(NC(=O)c1nn(CC(F)F)c3ncccc13)C2 (stereo partly drawn) [Example 66, 1-(2,2-difluoroethyl)-N-((1R,5S,7S)-9-methyl-3-oxa-9-azabicyclo[3.3.1]nonan-7-yl)-1H-pyrazolo[3,4-b]pyridine-3-carboxamide, 2,2,2-trifluoroacetate]",1.07 nM
5,"CN1C2COCC1CC(NC(=O)c1cn(-c3ccccc3)c3ccccc13)C2 [Example 174, N-((1R,5S,7s)-9-methyl-3-oxa-9-azabicyclo[3.3.1]nonan-7-yl)-1-phenyl-1H-indole-3-carboxamide, 2,2,2-trifluoroacetic acid salt]",2.06 nM
6,"CN1[C@@H]2CCC[C@H]1CC(OC(=O)c1cn(CCF)c3ccccc13)C2 (stereo partly drawn) [Example 87, (1R,3R,5S)-9-methyl-9-azabicyclo[3.3.1]nonan-3-yl 1-(2-fluoroethyl)-1H-indole-3-carboxylate, 2,2,2-trifluoroacetate]",0.18 nM
7,"CN1[C@@H]2COC[C@H]1CC(NC(=O)c1cn(C(F)C(F)(F)F)c3ncccc13)C2 (stereo partly drawn) [Example 81, N-((1R,5S,7S)-9-methyl-3-oxa-9-azabicyclo[3.3.1]nonan-7-yl)-1-(1,2,2,2-tetrafluoroethyl)-1H-pyrrolo[2,3-b]pyridine-3-carboxamide, 2,2,2-trifluoroacetate]",1.44 nM
8,"(1R,5S,7s)-3-oxa-9-azabicyclo[3.3.1]nonan-7-yl 1-(2-cyanophenyl)-1H-indole-3-carboxylate, 2,2,2-trifluoroacetic acid salt [Example 28]",1.08 nM
9,"CN1[C@@H]2COC[C@H]1CC(NC(=O)c1cn(CCF)c3ccccc13)C2 (stereo partly drawn) [Example 127, 1-(2-fluoroethyl)-N-((1R,5S,7S)-9-methyl-d3-3-oxa-9-azabicyclo[3.3.1]nonan-7-yl)-1H-indole-3-carboxamide, 2,2,2-trifluoroacetate]",0.22 nM
10,"O=C(NC1C[C@H]2COC[C@@H](C1)N2)c1nn(CC(F)F)c2ccccc12 (stereo partly drawn) [Example 65, N-((1R,5S,7S)-3-oxa-9-azabicyclo[3.3.1]nonan-7-yl)-1-(2,2-difluoroethyl)-1H-indazole-3-carboxamide, 2,2,2-trifluoroacetate]",4.09 nM
11,"CN1C2COCC1CC(NC(=O)c1cn(CC(F)(F)F)c3ccc(F)cc13)C2 [Example 35, 5-fluoro-N-((1R,5S,7S)-9-methyl-3-oxa-9-azabicyclo[3.3.1]nonan-7-yl)-1-(2,2,2-trifluoroethyl)-1H-indole-3-carboxylate, 2,2,2-trifluoroacetate]",0.54 nM
12,"(1R,3R,5S)-8-methyl-8-azabicyclo[3.2.1]octan-3-yl 3,4-dihydro-2H-[1,3]oxazino[3,2-a]indole-10-carboxylate 2,2,2-trifluoroacetate [Example 19]",7.72 nM
13,CC(C)S(=O)(=O)n1cc(C(=O)NC2C[C@H]3COC[C@@H](C2)N3C)c2ccccc21 (stereo partly drawn),0.57 nM
14,"(1R,5S,7S)-9-methyl-3-oxa-9-azabicyclo[3.3.1]nonan-7-yl 1-(2,2-difluoroethyl)-1H-pyrrolo[2,3-b]pyridine-3-carboxylate 2,2,2-trifluoroacetate [Example 14]",3.71 nM
15,"CC(C)CS(=O)(=O)n1cc(C(=O)OC2C[C@H]3COC[C@@H](C2)N3)c2ccccc21 (stereo partly drawn) [Example 135, (1R,5S,7S)-3-oxa-9-azabicyclo[3.3.1]nonan-7-yl 1-(isobutylsulfonyl)-1H-indole-3-carboxylate, 2,2,2-trifluoroacetate]",11.7 nM
16,"N#Cc1cccc(-n2cc(C(=O)OC3CC4COCC(C3)N4)c3ccccc32)c1 [Example 172, (1R,5S,7s)-3-oxa-9-azabicyclo[3.3.1]nonan-7-yl 1-(3-cyanophenyl)-1H-indole-3-carboxylate, 2,2,2-trifluoroacetic acid salt]",2.89 nM
17,"N#Cc1ccccc1-n1cc(C(=O)O[C@H]2C[C@H]3COC[C@@H](C2)N3)c2ccccc21 [Example 171, (1R,5S,7s)-3-oxa-9-azabicyclo[3.3.1]nonan-7-yl 1-(2-cyanophenyl)-1H-indole-3-carboxylate, 2,2,2-trifluoroacetic acid salt]",1.11 nM
18,"(1R,5S,7s)-3-oxa-9- azabicyclo[3.3.1]nonan- 7-yl 1-(isothiazol-5-yl)- 1H-indole-3- carboxamide, 2,2,2- trifluoroacetic acid salt [Example 155]",1.26 nM
19,"O=C(O[C@H]1C[C@H]2COC[C@@H](C1)N2)c1cn(-c2cccnn2)c2ccccc12 [Example 136, (1R,5S,7s)-3-oxa-9-azabicyclo[3.3.1]nonan-7-yl 1-(pyridazin-3-yl)-1H-indole-3-carboxylate, 2,2,2-trifluoroacetic acid salt]",0.914 nM
20,"CN1[C@@H]2COC[C@H]1C[C@@H](NC(=O)c1cn(-c3cscn3)c3ncccc13)C2 [Example 147, N-((1R,5S,7s)-9-methyl-3-oxa-9-azabicyclo[3.3.1]nonan-7-yl)-1-(thiazol-4-yl)-1H-pyrrolo[2,3-b]pyridine-3-carboxamide, 2,2,2-trifluoroacetic acid salt]",0.4 nM
21,"O=C(NC1C[C@H]2COC[C@@H](C1)N2)c1cn(CC(F)(F)F)c2ncc(F)cc12 (stereo partly drawn) [Example 105, N-((1R,5S,7S)-3-oxa-9-azabicyclo[3.3.1]nonan-7-yl)-5-fluoro-1-(2,2,2-trifluoroethyl)-1H-pyrrolo[2,3-b]pyridine-3-carboxamide, 2,2,2-trifluoroacetate]",34.1 nM
22,"CN1[C@@H]2COC[C@H]1CC(NC(=O)c1cn(-c3ncccn3)c3ccccc13)C2 (stereo partly drawn) [Example 107, N-((1R,5S,7S)-9-methyl-3-oxa-9-azabicyclo[3.3.1]nonan-7-yl)-1-(pyrimidin-2-yl)-1H-indole-3-carboxamide, 2,2,2-trifluoroacetate]",1.1 nM
23,"O=C(OC1C[C@H]2COC[C@@H](C1)N2)c1cn(S(=O)(=O)C2CC2)c2ccccc12 (stereo partly drawn) [Example 134, (1R,5S,7S)-3-oxa-9-azabicyclo[3.3.1]nonan-7-yl 1-(cyclopropylsulfonyl)-1H-indole-3-carboxylate, 2,2,2-trifluoroacetate]",1.99 nM
24,"(1R,3R,5S)-8-methyl-8-azabicyclo[3.2.1]octan-3-yl 2-chloro-1-(2,2-difluoroethyl)-1H-indole-3-carboxylate 2,2,2-trifluoroacetate [Example 4]",1.4 nM
